Data reported in patent US11208422B2, “Substituted bridged diazepane derivatives and use thereof as TASK-1 and TASK-3 inhibitors” (Bayer Pharma Aktiengesellschaft, priority 2017, dated 2021).

How the values were obtained:
Assay type in all cases: cell-based
[1] = molecular target: T1, recombinant TASK-1 (Homo sapiens (Human), UniProt O14649); experiment: Two-electrode voltage clamp analysis of human TASK-1 channel expressed in Xenopus laevis oocytes; settings: TASK-1 IC50, human TASK-1 in Xenopus laevis oocytes
Protocol: (§1) Xenopus laevis oocytes were selected as described elsewhere by way of illustration [Decher et al., FEBS Lett. 492, 84-89 (2001)]. […] For the electrophysiological analysis of the channel proteins expressed in the oocytes, the two-electrode voltage clamp technique [Stühmer, Methods Enzymol. 207, 319-339 (1992)] was used. The measurements were conducted as described [Decher et al., FEBS Lett. 492, 84-89 (2001)] at room temperature (21-22° C.) using a Turbo TEC 10CD amplifier (NPI), recorded at 2 kHz and filtered with 0.4 kHz. Substance administration was performed using a gravitation-driven perfusion system. Here, the oocyte is located in a measuring chamber and exposed to the solvent stream of 10 ml/min. The level in the measuring chamber is monitored and regulated by sucking off the solution using a peristaltic pump.

[2] = molecular target: T2, recombinant TASK-3 (Homo sapiens (Human), UniProt Q9NPC2); experiment: Two-electrode voltage clamp analysis of human TASK-3 channel expressed in Xenopus laevis oocytes; settings: TASK-3 IC50, human TASK-3 in Xenopus laevis oocytes
Protocol: as §1

[3] = molecular target: T2, recombinant TASK-3; experiment: Inhibition of recombinant TASK-3 in stably transfected CHO cells (KCl-induced depolarization, voltage-sensitive dye, FLIPR); settings: depolarization induced by 40 mM potassium chloride, some mean values from multiple determinations
Protocol: (§2) The compounds of the invention were tested here with administration of 40 mM of potassium chloride in the presence of a voltage-sensitive dye using the method described in detail in the following references [Whiteaker et al., Validation of FLIPR membrane potential dye for high-throughput screening of potassium channel modulators, J. Biomol. Screen. 6 (5), 305-312 (2001); Molecular Devices FLIPR Application Note: Measuring membrane potential using the FLIPR® membrane potential assay kit on Fluorometric Imaging Plate Reader (FLIPR®) systems, http://www.moleculardevices.com/reagents-supplies/assay-kits/ion-channels/flipr-membrane-potential-assay-kits]. The activity of the test substances was determined as their ability to inhibit a depolarization induced in the recombinant cells by 40 mM potassium chloride. The concentration which can block half of this depolarization is referred to as IC50.

[4] = molecular target: T1, recombinant TASK-1; experiment: Inhibition of recombinant TASK-1 in stably transfected CHO cells (KCl-induced depolarization, voltage-sensitive dye, FLIPR); settings: depolarization induced by 40 mM potassium chloride, some mean values from multiple determinations
Protocol: as §2

T2 sequence (Q9NPC2 whole entry): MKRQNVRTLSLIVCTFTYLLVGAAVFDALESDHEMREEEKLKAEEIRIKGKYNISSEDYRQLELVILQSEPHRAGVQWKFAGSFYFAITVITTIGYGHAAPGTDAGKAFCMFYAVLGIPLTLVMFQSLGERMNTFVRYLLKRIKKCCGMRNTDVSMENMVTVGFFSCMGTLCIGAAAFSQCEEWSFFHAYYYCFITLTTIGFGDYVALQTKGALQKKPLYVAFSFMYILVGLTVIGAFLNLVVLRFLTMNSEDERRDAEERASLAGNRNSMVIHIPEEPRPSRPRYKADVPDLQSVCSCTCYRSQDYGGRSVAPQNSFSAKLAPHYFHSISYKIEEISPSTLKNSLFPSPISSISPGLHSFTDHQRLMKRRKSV
T1 sequence (O14649 whole entry, the tested form may be a part): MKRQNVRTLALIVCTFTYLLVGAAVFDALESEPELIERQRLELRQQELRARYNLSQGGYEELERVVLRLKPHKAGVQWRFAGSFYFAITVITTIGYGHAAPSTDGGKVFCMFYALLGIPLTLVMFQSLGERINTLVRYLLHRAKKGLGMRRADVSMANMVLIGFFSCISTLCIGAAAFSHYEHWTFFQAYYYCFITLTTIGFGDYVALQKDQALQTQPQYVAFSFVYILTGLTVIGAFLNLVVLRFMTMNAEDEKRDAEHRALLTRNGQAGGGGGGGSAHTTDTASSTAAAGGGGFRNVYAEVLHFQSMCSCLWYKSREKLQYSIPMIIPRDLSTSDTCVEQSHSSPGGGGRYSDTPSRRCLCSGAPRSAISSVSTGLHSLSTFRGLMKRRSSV

COc1ccc(F)c(C(=O)N2C3CCN(Cc4c(-c5ccc(Cl)cc5)nc5ccccn45)CC2COC3)n1 (single isomer, unassigned) [Example 11]
IC50 [1]: 0.0114 ± 0.0022 µM | IC50 [2]: 0.0048 ± 0.0004 µM | IC50 [3]: 0.0011 µM | IC50 [4]: 0.113 µM

COc1ccc(F)c(C(=O)N2C3CCN(Cc4c(-c5ccc(Cl)cc5)nc5ccccn45)CC2COC3)n1 (single isomer, unassigned) [Example 12]
IC50 [1]: 0.0176 ± 0.0022 µM | IC50 [2]: 0.013 ± 0.0009 µM | IC50 [3]: 0.0025 µM | IC50 [4]: 0.0605 µM

COc1ccc(F)c(C(=O)N2C3CCC2CN(Cc2c(-c4ccc(Cl)cn4)nc4ccccn24)CC3)n1 (single isomer, unassigned) [Example 15, [3-{[2-(5-Chloropyridin-2-yl)imidazo[1,2-a]pyridin-3-yl]methyl}-3,9-diazabicyclo[4.2.1]non-9-yl](3-fluoro-6-methoxypyridin-2-yl)methanone]
IC50 [1]: 0.00754 ± 0.0014 µM | IC50 [2]: 0.0155 ± 0.0015 µM | IC50 [3]: 0.0073 µM | IC50 [4]: 0.25 µM

COc1ccc(F)c(C(=O)N2C3CCC2CN(Cc2c(-c4ccc(C(C)C)cc4)nc4ncccn24)CC3)n1 (stereo not drawn) [Example 102]
IC50 [3]: 0.036 µM | IC50 [4]: 0.17 µM

COc1ccc(F)c(C(=O)N2C3CCN(Cc4c(-c5ccc(Cl)cc5)nc5ccccn45)CC2COC3)n1 (racemic) [Example 92, [3-{[2-(4-chlorophenyl)imidazo[1,2-a]pyridin-3-yl]methyl}-8-oxa-3,10-diazabicyclo[4.3.1]dec-10-yl](3-fluoro-6-methoxypyridin-2-yl)methanone]
IC50 [3]: 0.0025 µM | IC50 [4]: 0.085 µM

COc1ccc(F)c(C(=O)N2CCC3CCC2CN3Cc2c(-c3ccc(Cl)cc3)nc3ccccn23)n1 (stereo not drawn) [Example 27]
IC50 [3]: 0.003 µM | IC50 [4]: 0.15 µM

O=C(c1ccccc1F)N1CCC2CCC1CN2Cc1c(-c2ccc(Cl)cn2)nc2ncccn12 (stereo not drawn) [Example 31]
IC50 [3]: 0.047 µM | IC50 [4]: 0.91 µM

COc1ccc(Cl)c(C(=O)N2CCC3CCC2CN3Cc2c(-c3ccc(Cl)cc3)nc3ncccn23)n1 (stereo not drawn) [Example 23]
IC50 [3]: 0.024 µM | IC50 [4]: 3 µM

CC(C)c1ccc(-c2nc3ncccn3c2CN2C3CCC2CN(C(=O)c2ccccc2F)CC3)cc1 (stereo not drawn) [Example 64]
IC50 [3]: 1.8 µM | IC50 [4]: 7.2 µM
